Columns and labels:
[1] = system: Hematological cancer cell lines; experiment: Resazurin viability, cell line panel; format: cell-based; settings: read-out: EC50, average over cell lines
Experimental: (§1) Cells were seeded in 96- or 384-well plates and incubated for 3 days for combination experiments or 5 days for single-drug exposure experiments. Resazurin (R7017, SigmaAldrich) was added to a final concentration of 0.01 mg/ml resazurin and fluorescence was measured at ex530/em590 after incubation for 2, 4 or 6 h. Curves were fitted using XLfit software (IDBS) or Prism 8.0 (Graphpad Software), and EC50 values were determined.
(§2) Figure 3. The OGG1 inhibitor TH5487 is selectively toxic to oncogene-expressing cells and cancer cell lines. (A) Close-up view of ligand TH5487 (green) binding to human OGG1. Important residues in the binding site are marked, hydrogen bond interactions are shown in black dashed line, water (red sphere)-mediated interactions in grey dashed line. (B) Comparison between the binding of ligand TH5487 (green) to human OGG1 (gray) with the structure of TH5675 (pink) bound to mouse OGG1 (yellow, PDB 6G3Y). (C) Viability of BJ-Tert and BJ-Ras cells exposed to the indicated concentrations TH5487 for five days. Data are average ±SD of four technical replicates from two independent experiments. (D) Clonogenic survival of cell lines exposed to TH5487. The cancer cell lines ACHN and H460, and the non-transformed cell lines MRC5 and Ogg1^−/− mouse embryonic fibroblasts (MEF) were incubated for 6–11 days in the presence of the indicated concentrations TH5487, followed by colony enumeration. Data are average ±SD values of four technical replicates, representative of three independent experiments. (E) TH5487 selectively decreases viability of cancer cell lines. EC50-values of 34 cancer (red) and 7 non-transformed cell lines (blue). Cells were exposed to a dilution series of TH5487 for five days followed by a viability assessment using resazurin. All cell lines were tested in two to ten independent experiments. Each point represents the EC50-value from one experiment (average of two or three technical replicates). (F) Comparative analysis of EC50 values for TH5487 in cancer- and non-transformed cell lines, and CD34+ hematopoietic stem cells, CD34- fraction from cord blood or PBMCs from healthy donor blood. All primary blood cells were tested upon activation with Dynabeads/Phytohemagglutinin or not and exposed to a dilution series of TH5487 to calculate EC50 values by resazurin assay.

[2] = system: non-transformed cell lines; experiment: Resazurin viability, cell line panel; format: cell-based; settings: Figure 3F, read-out: EC50 (loss of proliferation), average over cell lines
Experimental: as §1, §2

[3] = system: peripheral blood mononuclear cells (PBMCs); experiment: PBMC proliferation / tolerance; format: cell-based
Experimental: Peripheral blood mononuclear Cells (PBMC) were isolated from peripheral whole blood from controls using Histopaque®-1077 (Sigma-Aldrich, San Luis, MO, USA) following the manufacturer's instructions. Briefly, peripheral blood was collected in heparin and diluted with equal amount of PBS. Next, blood was centrifuged with Histopaque®-1077 at 400 × g for 30 min at room temperature and the PBMC layer was recovered. All steps were processed within 4 h after blood extraction.
PMBCs and CD34- fraction (CB) were cultured in the presence of PHA-L (Sigma-Aldrich, ref: 11249738001) or Dynabeads® Human T-Activator CD3/CD28 (Thermofisher scientific, ref: 11131D) for the activation and expansion of human T cells according to the manufacturer's instructions. […]
experiments (Supplementary Table S1).
PBMCs from two donors were activated using Dynabeads and exposed to 10 µM TH5487 during 72 h […]
to follow cell numbers. […] CD3+ T-cells were activated with Dynabeads and treated with DMSO or TH5487 for 6 days, or 25 µM camptothecin for 24 h as a technical control. Survival was assessed by flow cytometry. Data are three technical replicates from one donor, representative of four individuals. Paired, two-sided T-tests were used to assess significance (ns, non-significant, ****, P<0.0001). I. to K. Gating strategy for identification of dead cells. CD3+ cells were stained with Annexin V and Sytox Blue. […]

[4] = system: genomic 8-oxodG in A3 cells; experiment: 8-oxodG detection in genomic DNA by LC-MS/MS; format: cell-based, human; settings: 10 μM, up to five days
Experimental: 8-oxodG detection in genomic DNA through LC–MS/MS ([39]) and single-cell electrophoresis ([40]) were performed as described.
Figure 5. Effect of TH5487 on DNA lesions, DNA damage markers and DNA replication. (A) 8-oxodG accumulation in A3 cells. A3 cells were treated with 20 mM KBrO3 for 1 h or with 10 μM TH5487 for the indicated times, and the amount of genomic 8-oxodG was quantified with LC-MS/MS. Data are average ±SD of five replicates from two independent experiments. (B) Comet assay. A3 cells were treated with 10 μM TH5487 for 72 h and strand-breaks and OGG1 substrate lesions were analyzed with the OGG1-modified Comet assay. Representative images of cells are shown. (C) Violin blot of Comet tail moment. Cells were treated as in B, and the tail moment of the cells were analyzed using blinded automatic analysis (n = 200 per condition from two independent experiments). The full line indicates median, and the dotted lines quartiles. (D) Violin blot of phosphorylated γH2AX intensity. A3 cells were treated with 0.1% DMSO or 10 μM TH5487 for the indicated times and stained for phosphorylated γH2AX. […] At least 33 000 nuclei per group were quantified from three independent experiments. […] At least 300 forks were scored per condition. Statistical significance was determined using unpaired, two-sided t-tests (**P < 0.01, ***P < 0.001 and ****P < 0.0001; ns, non-significant).

O=C(Nc1ccc(I)cc1)N1CCC(n2c(=O)[nH]c3c(Br)cccc32)CC1 [TH5487]
EC50 [1]: 14.7 ± 4.7 µM | EC50 [2]: 36.9 ± 7.5 µM | Tolerance by resting and activated PBMCs ([3]; 10 μM, healthy donors): well tolerated | Proliferation of activated PBMCs ([3]; Dynabeads-activated PBMCs from two donors, 10 µM, 72 h): does not affect proliferation | Genomic 8-oxodG levels [4]: did not rise above assay background levels
